The source of these data is patent US10301317B2, “Inhibitors of ERK and methods of use” (Kura Oncology, Inc., priority 2013, dated 2019).

Assay [1] deals with phospho-p90 RSK (RSK1 Thr359/Ser363) in A375 (Braf V600E) cells. As to the kind of experiment: Phospho-p90 RSK ELISA using A375 (Braf V600E) cells. Format: cell-based. The conditions noted are these: Homo sapiens, A-375, 2 hours compound treatment, read-out: Cellular Phospho-p90RSK IC50.
A further assay concerns WM-266-4 cells. The assay is described as follows: Tumor cell line proliferation assay (CellTiter Glo), WM-266-4. The class given is cell-based. Conditions: Homo sapiens, 96 hours, read-out: WM-266-4 (V599D) Cell Proliferation IC50.
The next assay deals with A375 cells. The assay is described as follows: Tumor cell line proliferation assay (CellTiter Glo), A375. Format: cell-based. Conditions: Homo sapiens, A-375, 96 h, read-out: A375 (V599E) Cell Proliferation IC50.
In another assay the test system is H358 (Kras, G12C) cells. The assay is described as follows: Tumor cell line proliferation assay (CellTiter Glo), H358. The conditions noted are these: Homo sapiens, NCI-H358, 96 hours. Format: cell-based.
The target in the next assay is ERK2 enzyme (Homo sapiens (Human), UniProt P28482). The assay is described as follows: Z'-LYTE kinase assay, inhibition of ERK activity. Format: biochemical. The conditions noted are these: 100 μM ATP. As for the experimental part:
The inhibition of ERK activity by the compounds disclosed herein was determined using the Z′-LYTE kinase assay kit (Life Technologies) with a Ser/Thr 3 peptide substrate (Life Technologies) according to manufacturers' instructions. […] The IC50 values for the compounds were determined with 3-fold serial dilutions in duplicate. […] The final DMSO concentration in the assay was 1%. Final reaction volume was 20 μL/well in 384-well plates. Kinase reactions were conducted or 1 hour followed by the assay development reaction (1 hour) in a 20 ul/well in a 384 well plate format.

Setting [2] is: In vitro Erk2, Z'-LYTE kinase assay.

Chain of ERK2 enzyme (P28482 whole entry): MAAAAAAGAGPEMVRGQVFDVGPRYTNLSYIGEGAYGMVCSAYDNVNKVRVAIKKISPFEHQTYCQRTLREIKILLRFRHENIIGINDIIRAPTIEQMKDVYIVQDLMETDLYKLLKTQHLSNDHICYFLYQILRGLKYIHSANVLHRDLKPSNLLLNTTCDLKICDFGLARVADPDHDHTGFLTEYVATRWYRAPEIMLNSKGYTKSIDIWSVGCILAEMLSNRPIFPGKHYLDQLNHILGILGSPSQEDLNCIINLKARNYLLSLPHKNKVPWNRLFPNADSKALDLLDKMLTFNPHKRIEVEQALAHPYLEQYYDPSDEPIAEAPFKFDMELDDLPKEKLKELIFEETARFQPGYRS

With `O=C1Nc2cc3[nH]nc(-c4ccncc4)c3cc2CN1Cc1ccccc1` [Example 1, 6-benzyl-3-(pyridin-4-yl)-1,5,6,8-tetrahydro-7H-pyrazolo[4,3-g]quinazolin-7-one], the IC50 was at most 250 nM in assay [1]; at most 250 nM with WM-266-4 cells; at most 250 nM in the assay with A375 cells; at most 250 nM in the assay on H358 (Kras, G12C) cells.
As for `O=C1Nc2cc3[nH]nc(-c4ccncc4)c3cc2CN1Cc1cccc(Cl)c1` [Example 3], the IC50 (in assay [1]; with WM-266-4 cells; in the assay with A375 cells) was at most 250 nM each time.
For the molecule `Cc1cc(-c2n[nH]c3cc4c(cc23)CN(Cc2cccc(Cl)c2)C(=O)N4)ccn1` [Example 4], the IC50 (in assay [1]; in the assay with WM-266-4 cells; in the assay with A375 cells) was at most 250 nM throughout.
For the molecule `Cc1cc(-c2n[nH]c3cc4c(cc23)CN([C@H](C)c2ccc(F)cc2)C(=O)N4)ccn1` [Example 5], the IC50 in assay [1] was 250 to 1000 nM; in the assay with WM-266-4 cells, 250 to 1000 nM; with A375 cells, over 1000 nM.
For `Cc1cc(-c2n[nH]c3cc4c(cc23)CN(Cc2cc(F)cc(F)c2)C(=O)N4)ccn1` [Example 7], the figures for the IC50 (in assay [1]; in the assay on WM-266-4 cells; in the assay with A375 cells) were at most 250 nM, at most 250 nM and 250 to 1000 nM, respectively.
Regarding `Cc1cc(-c2n[nH]c3cc4c(cc23)CN(Cc2ccc(F)c(Cl)c2)C(=O)N4)ccn1` [Example 8], the figures for the IC50 (in assay [1]; in the assay with WM-266-4 cells; in the assay with A375 cells) were at most 250 nM, at most 250 nM and 250 to 1000 nM, respectively.
`COc1ncccc1CN1Cc2cc3c(-c4ccnc(C)c4)n[nH]c3cc2NC1=O` [Example 9]: the values for the IC50 (in assay [1]; in the assay with WM-266-4 cells; in the assay on A375 cells) were 250 to 1000 nM, 250 to 1000 nM and over 1000 nM, respectively.
Turning to `COc1ccc(CN2Cc3cc4c(-c5ccnc(C)c5)n[nH]c4cc3NC2=O)cc1` [Example 10], the IC50 is at most 250 nM in assay [1], at most 250 nM in the assay with WM-266-4 cells and 250 to 1000 nM in the assay with A375 cells.
With `Cc1cc(-c2n[nH]c3cc4c(cc23)CN(Cc2ccc(F)cc2F)C(=O)N4)ccn1` [Example 11], the IC50 in assay [1] was at most 250 nM; with WM-266-4 cells it was at most 250 nM; in the assay with A375 cells it was 250 to 1000 nM.
Regarding `Cc1cc(-c2n[nH]c3cc4c(cc23)CN(Cc2ccc(C(F)(F)F)cc2)C(=O)N4)ccn1` [Example 12], the IC50 in assay [1] was at most 250 nM; with WM-266-4 cells it was at most 250 nM; with A375 cells, 250 to 1000 nM.
Regarding `Cc1cc(-c2n[nH]c3cc4c(cc23)CN(Cc2ccc(F)c(F)c2)C(=O)N4)ccn1` [Example 13], the figures for the IC50 (in assay [1]; with WM-266-4 cells; with A375 cells) were at most 250 nM, 250 to 1000 nM and 250 to 1000 nM, respectively.
In the case of `Cc1cc(-c2n[nH]c3cc4c(cc23)CN(Cc2ccc(Cl)cc2)C(=O)N4)ccn1` [Example 14], the IC50 in assay [1] was at most 250 nM; in the assay on WM-266-4 cells it was 250 to 1000 nM; in the assay on A375 cells it was 250 to 1000 nM.
Consider `Cc1cc(-c2n[nH]c3cc4[nH]c(=O)n(Cc5ccc(F)c(Cl)c5)c(=O)c4cc23)ccn1` [Example 15], for which the IC50 is 250 to 1000 nM in assay [1], over 1000 nM in the assay on WM-266-4 cells and over 1000 nM in the assay on A375 cells.
Take `Cc1cc(-c2n[nH]c3cc4c(cc23)CN([C@H](C)c2ccc(Cl)cc2)C(=O)N4)ccn1` [Example 16]: the IC50 in assay [1] is at most 250 nM; in the assay on WM-266-4 cells, 250 to 1000 nM; in the assay with A375 cells it was 250 to 1000 nM; against ERK2 enzyme (In vitro, ERK2 enzyme), 50 to 250 nM.
As to `Cc1cc(-c2n[nH]c3cc4c(cc23)CN(C2(c3ccc(F)cc3)CC2)C(=O)N4)ccn1` [Example 17], the IC50 is 250 to 1000 nM in assay [1], over 1000 nM with WM-266-4 cells and over 1000 nM in the assay on A375 cells.
In the case of `Cc1cc(-c2n[nH]c3cc4c(cc23)CN(CCc2ccc(F)cc2)C(=O)N4)ccn1` [Example 18], the IC50 in assay [1] was at most 250 nM; in the assay on WM-266-4 cells it was 250 to 1000 nM; with A375 cells it was 250 to 1000 nM.
Turning to `Cc1cc(-c2n[nH]c3cc4[nH]c(=O)n(Cc5ccccc5)c4cc23)ccn1` [Example 19], the IC50 in assay [1] was 250 to 1000 nM; with WM-266-4 cells it was over 1000 nM; with A375 cells it was over 1000 nM.
As to `Cc1cc(-c2n[nH]c3cc4[nH]c(=O)n(CCc5ccccc5)c4cc23)ccn1` [Example 20], the IC50 (in assay [1]; in the assay with WM-266-4 cells; in the assay with A375 cells) was over 1000 nM throughout.
On to `Cc1cc(-c2n[nH]c3cc4[nH]c(=O)c(Cc5ccc(F)cc5)cc4cc23)ccn1` [Example 21], for which the IC50 (in assay [1]; in the assay on WM-266-4 cells; in the assay with A375 cells) was 250 to 1000 nM throughout.
Take `Cc1cc(-c2n[nH]c3cc4[nH]c(=O)c(C(C)c5ccccc5)cc4cc23)ccn1` (stereo not drawn) [Example 22]: the IC50 (in assay [1]; in the assay with WM-266-4 cells; in the assay on A375 cells) was at most 250 nM in each case.
As for `Cc1cc(-c2n[nH]c3cc4c(cc23)CN([C@H](C)c2ccc(C#N)cc2)C(=O)N4)ccn1` [Example 23], the IC50 was at most 250 nM in assay [1], over 1000 nM with WM-266-4 cells and 250 to 1000 nM with A375 cells.
On to `O=C1Nc2cc3[nH]nc(CC4CCOCC4)c3cc2CN1[C@@H]1CN(CC(F)(F)F)C[C@H]1c1ccccc1` [Example 361], for which the IC50 in assay [1] was at most 250 nM; on ERK2 enzyme (setting [2]), 50 to 250 nM.
In the same order, the values of `COc1ccc(-c2n[nH]c3cc4[nH]c(=O)c(C5CCCN(Cc6ccccc6)C5)cc4cc23)cn1` (stereo not drawn) [Example 367] are 250 to 1000 nM and under 50 nM.
